Counter-ions that a name gives are not always drawn.
Columns and labels:
anesthetized guinea pigs = conditions: guinea pig, in vivo
Procedure: The experiments were carried out according to the Konzett and Rössler technique [Arch. Exp. Patol. Pharmakol., 195, 71, (1940)] in anesthetized guinea pigs, where the potential increase in total airway resistance induced by the tested compounds was registered as a change in air overflow.
Male guinea pigs (500-600 g body weight) were anesthetized with ethylurethane (1.25 g/kg/i.p.) and the anesthesia was maintained by additional doses of ethylurethane given by intravenous route.
A catheter was inserted into the jugular vein for the administration of histamine.
The guinea pigs were subjected to forced ventilation at constant volume and at 72 breaths/minute.
Basal overflow value was set up to 8 cm H20.
Equimolecular doses of N-acetyl-L-cysteine in the form of free acid, lysine salt, calcium salt and magnesium salt [(NAC)2Mg] were administered as a micronized powder in trachea by forced insufflation.
The bronchoconstrictive effect was evaluated as the equivalent dose of histamine causing the same change in air overflow.
In control experiments the effect of forced insufflation of lactose was evaluated.

Solubility in water = format: physicochemical
Text: solubility in water: about 50%

pH of aqueous solution = format: physicochemical; conditions: 1 % aqueous solution
Text: pH (1 % aqueous solution) = 5.35

predisposed subjects = conditions: the patent says tested doses were much lower than therapeutically useful doses; cited from earlier work

CC(=O)N[C@@H](CS)C(=O)O [(NAC)2Mg, N-acetyl-L-cysteine magnesium salt]
Histamine dose X-±S.E. (dose of hystamine causing a bronchospasm equivalent to the change in air overflow) (anesthetized guinea pigs): 3.96±0.28 ^(**) µg/kg/i.v.
bronchoconstrictive effect compared with N-acetyl-L-cysteine (anesthetized guinea pigs): significantly lower
solubility (Solubility in water): ~500 mg/mL
pH (pH of aqueous solution): 5.35

CC(=O)N[C@@H](CS)C(=O)O [NAC calcium salt]
Histamine dose X-±S.E. (dose of hystamine causing a bronchospasm equivalent to the change in air overflow) (anesthetized guinea pigs): 7.03±1.48 µg/kg/i.v.
bronchoconstrictive effect compared with N-acetyl-L-cysteine (anesthetized guinea pigs): not significantly different

CC(=O)N[C@@H](CS)C(=O)O [NAC lysine salt]
Histamine dose X-±S.E. (dose of hystamine causing a bronchospasm equivalent to the change in air overflow) (anesthetized guinea pigs): 4.53±0.40 µg/kg/i.v.
induction of bronchospasm (predisposed subjects): does not induce bronchospasm

CC(=O)N[C@@H](CS)C(=O)O [NAC, N-acetyl-L-cysteine]
Histamine dose X-±S.E. (dose of hystamine causing a bronchospasm equivalent to the change in air overflow) (anesthetized guinea pigs): 5.81±0.93 µg/kg/i.v.

Reference: EP0486921A1, “N-acetyl-L-cysteine magnesium salt and pharmaceutical compositions containing it” (ZAMBON GROUP S.p.A., priority 1990, dated 1992)
